# Source: patent US20070270418A1, “Inhibitors of P38 and Methods of Using the Same” (priority 2003, published 2007)
# Molecular target: T1, CaMKIV (Homo sapiens, UniProt Q16566)
# T1 construct: purchased Upstate (Charlottesville, Va.)
# T1 sequence (Q16566 1-473): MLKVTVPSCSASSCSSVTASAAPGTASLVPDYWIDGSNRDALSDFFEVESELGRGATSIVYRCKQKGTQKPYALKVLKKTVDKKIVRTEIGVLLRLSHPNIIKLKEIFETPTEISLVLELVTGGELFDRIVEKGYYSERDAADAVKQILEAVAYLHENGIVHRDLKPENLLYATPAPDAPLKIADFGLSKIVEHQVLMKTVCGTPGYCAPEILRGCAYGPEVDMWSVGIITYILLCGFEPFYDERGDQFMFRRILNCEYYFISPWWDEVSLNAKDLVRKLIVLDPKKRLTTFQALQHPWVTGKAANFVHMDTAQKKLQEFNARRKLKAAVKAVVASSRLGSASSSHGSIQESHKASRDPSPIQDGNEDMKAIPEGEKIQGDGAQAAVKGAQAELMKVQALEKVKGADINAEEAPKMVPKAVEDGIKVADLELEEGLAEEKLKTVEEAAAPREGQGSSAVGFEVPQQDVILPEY
# Assay: Broad selectivity panel, 32P incorporation
# Type: biochemical
# Settings: 0.1 μM compound, 40 μM ATP; read-out: Percent inhibition CaMKIV
# Procedure: (§1) Various compounds of the present invention are screened against a panel of 24 additional kinases (Upstate, Charlottesville, Va.). Compounds are tested 0.1 μM and 1 μM in reactions containing 40 μM ATP. Incorporation of radiolabeled phosphate (^32P) into each kinase substrate is measured in the presence and absence of test compound. Results are reported as the percent decrease in the amount of ^32P incorporated into the substrate in the presence of compound, compared to buffer control.
row,SMILES,inhibition at 0.1 µM
1,CC(=O)N1CCC(Nc2nccc(-c3c(-c4ccc(F)cc4)nc4occn34)n2)CC1 [CCLXXVIII],8%
2,CN1[C@@H]2CC[C@H]1C[C@@H](Nc1nccc(-c3c(-c4ccc(F)cc4)nc4occn34)n1)C2 [CCLXXXI],12%

# Same assay, conditions: 1 μM compound, 40 μM ATP; read-out: Percent inhibition CaMKIV
row,SMILES,inhibition at 1 µM
1,CC(=O)N1CCC(Nc2nccc(-c3c(-c4ccc(F)cc4)nc4occn34)n2)CC1 [CCLXXVIII],21%
2,CN1[C@@H]2CC[C@H]1C[C@@H](Nc1nccc(-c3c(-c4ccc(F)cc4)nc4occn34)n1)C2 [CCLXXXI],33%

# Molecular target: T2, FGFR3 (Homo sapiens, UniProt P22607)
# T2 construct: purchased Upstate (Charlottesville, Va.)
# T2 sequence (P22607 23-806, species assumed): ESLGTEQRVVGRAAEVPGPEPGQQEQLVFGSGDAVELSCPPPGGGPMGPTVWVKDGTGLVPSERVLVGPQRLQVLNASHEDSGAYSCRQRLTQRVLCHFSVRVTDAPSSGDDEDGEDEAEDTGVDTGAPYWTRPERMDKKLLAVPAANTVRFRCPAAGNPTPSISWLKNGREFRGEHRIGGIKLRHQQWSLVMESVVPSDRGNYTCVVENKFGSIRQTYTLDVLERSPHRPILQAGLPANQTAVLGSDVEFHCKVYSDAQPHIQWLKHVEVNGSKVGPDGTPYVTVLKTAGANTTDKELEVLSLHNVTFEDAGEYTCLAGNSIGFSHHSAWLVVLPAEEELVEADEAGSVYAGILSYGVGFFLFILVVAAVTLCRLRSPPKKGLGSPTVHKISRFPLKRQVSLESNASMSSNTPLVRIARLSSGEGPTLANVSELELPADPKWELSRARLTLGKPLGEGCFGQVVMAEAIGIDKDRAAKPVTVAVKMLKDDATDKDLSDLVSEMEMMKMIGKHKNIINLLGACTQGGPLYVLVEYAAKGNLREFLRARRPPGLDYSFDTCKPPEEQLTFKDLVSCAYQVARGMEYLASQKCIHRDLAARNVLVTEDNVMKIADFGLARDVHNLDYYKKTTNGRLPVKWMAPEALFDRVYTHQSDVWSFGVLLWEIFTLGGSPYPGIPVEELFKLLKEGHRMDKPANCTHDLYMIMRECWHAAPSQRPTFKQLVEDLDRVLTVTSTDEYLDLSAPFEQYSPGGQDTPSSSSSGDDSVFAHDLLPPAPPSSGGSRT
# Assay: Broad selectivity panel, 32P incorporation
# Type: biochemical
# Settings: 0.1 μM compound, 40 μM ATP; read-out: Percent inhibition FGFR3
# Procedure: as §1
row,SMILES,inhibition at 0.1 µM
1,CC(=O)N1CCC(Nc2nccc(-c3c(-c4ccc(F)cc4)nc4occn34)n2)CC1 [CCLXXVIII],19%
2,CN1[C@@H]2CC[C@H]1C[C@@H](Nc1nccc(-c3c(-c4ccc(F)cc4)nc4occn34)n1)C2 [CCLXXXI],-27%

# Same assay, conditions: 1 μM compound, 40 μM ATP; read-out: Percent inhibition FGFR3
row,SMILES,inhibition at 1 µM
1,CC(=O)N1CCC(Nc2nccc(-c3c(-c4ccc(F)cc4)nc4occn34)n2)CC1 [CCLXXVIII],32%
2,CN1[C@@H]2CC[C@H]1C[C@@H](Nc1nccc(-c3c(-c4ccc(F)cc4)nc4occn34)n1)C2 [CCLXXXI],26%

# Molecular target: T3, JNK3-His (Homo sapiens, UniProt P53779)
# T3 construct: His; purchased Upstate (Charlottesville, Va.)
# T3 sequence (P53779 whole entry): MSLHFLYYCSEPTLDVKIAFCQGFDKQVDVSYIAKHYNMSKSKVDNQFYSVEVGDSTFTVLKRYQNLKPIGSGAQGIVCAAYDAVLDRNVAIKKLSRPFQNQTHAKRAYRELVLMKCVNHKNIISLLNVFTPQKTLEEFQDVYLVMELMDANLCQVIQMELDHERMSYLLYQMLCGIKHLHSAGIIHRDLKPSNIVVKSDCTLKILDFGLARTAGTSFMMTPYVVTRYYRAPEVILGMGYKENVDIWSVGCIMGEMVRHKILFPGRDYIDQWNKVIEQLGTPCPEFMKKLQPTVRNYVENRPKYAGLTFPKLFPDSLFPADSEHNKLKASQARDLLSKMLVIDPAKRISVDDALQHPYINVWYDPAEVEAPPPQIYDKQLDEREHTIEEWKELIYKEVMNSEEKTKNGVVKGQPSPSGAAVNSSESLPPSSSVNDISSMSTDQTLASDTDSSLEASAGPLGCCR
# Assay: Broad selectivity panel, 32P incorporation
# Type: biochemical
# Settings: 0.1 μM compound, 40 μM ATP; read-out: Percent inhibition JNK3-His
# Procedure: as §1
row,SMILES,inhibition at 0.1 µM
1,CC(=O)N1CCC(Nc2nccc(-c3c(-c4ccc(F)cc4)nc4occn34)n2)CC1 [CCLXXVIII],78%
2,CN1[C@@H]2CC[C@H]1C[C@@H](Nc1nccc(-c3c(-c4ccc(F)cc4)nc4occn34)n1)C2 [CCLXXXI],19%

# Same assay, conditions: 1 μM compound, 40 μM ATP; read-out: Percent inhibition JNK3-His
row,SMILES,inhibition at 1 µM
1,CC(=O)N1CCC(Nc2nccc(-c3c(-c4ccc(F)cc4)nc4occn34)n2)CC1 [CCLXXVIII],100%
2,CN1[C@@H]2CC[C@H]1C[C@@H](Nc1nccc(-c3c(-c4ccc(F)cc4)nc4occn34)n1)C2 [CCLXXXI],75%

# Molecular target: T4, Lyn (Homo sapiens, UniProt P07948)
# T4 construct: purchased Upstate (Charlottesville, Va.)
# T4 sequence (P07948 whole entry, species assumed): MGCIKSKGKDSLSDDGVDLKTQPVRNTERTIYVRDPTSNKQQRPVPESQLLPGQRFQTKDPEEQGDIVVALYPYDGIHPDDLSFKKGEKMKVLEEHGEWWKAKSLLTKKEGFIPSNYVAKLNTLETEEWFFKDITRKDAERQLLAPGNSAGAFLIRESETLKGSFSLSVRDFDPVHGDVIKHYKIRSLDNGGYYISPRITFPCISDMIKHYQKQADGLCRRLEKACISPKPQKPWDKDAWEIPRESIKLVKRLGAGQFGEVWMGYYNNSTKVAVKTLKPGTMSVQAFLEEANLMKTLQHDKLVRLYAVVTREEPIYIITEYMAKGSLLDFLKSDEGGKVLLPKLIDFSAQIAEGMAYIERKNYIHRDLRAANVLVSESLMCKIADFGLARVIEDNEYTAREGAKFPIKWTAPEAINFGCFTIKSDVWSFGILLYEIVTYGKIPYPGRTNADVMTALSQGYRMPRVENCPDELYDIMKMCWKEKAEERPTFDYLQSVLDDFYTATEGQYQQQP
# Assay: Broad selectivity panel, 32P incorporation
# Type: biochemical
# Settings: 0.1 μM compound, 40 μM ATP; read-out: Percent inhibition Lyn
# Procedure: as §1
row,SMILES,inhibition at 0.1 µM
1,CC(=O)N1CCC(Nc2nccc(-c3c(-c4ccc(F)cc4)nc4occn34)n2)CC1 [CCLXXVIII],-26%
2,CN1[C@@H]2CC[C@H]1C[C@@H](Nc1nccc(-c3c(-c4ccc(F)cc4)nc4occn34)n1)C2 [CCLXXXI],-6%

# Same assay, conditions: 1 μM compound, 40 μM ATP; read-out: Percent inhibition Lyn
row,SMILES,inhibition at 1 µM
1,CC(=O)N1CCC(Nc2nccc(-c3c(-c4ccc(F)cc4)nc4occn34)n2)CC1 [CCLXXVIII],-29%
2,CN1[C@@H]2CC[C@H]1C[C@@H](Nc1nccc(-c3c(-c4ccc(F)cc4)nc4occn34)n1)C2 [CCLXXXI],4%

# Molecular target: T5, MAPK1 (Homo sapiens, UniProt P27361)
# T5 construct: purchased Upstate (Charlottesville, Va.)
# T5 sequence (P27361 whole entry): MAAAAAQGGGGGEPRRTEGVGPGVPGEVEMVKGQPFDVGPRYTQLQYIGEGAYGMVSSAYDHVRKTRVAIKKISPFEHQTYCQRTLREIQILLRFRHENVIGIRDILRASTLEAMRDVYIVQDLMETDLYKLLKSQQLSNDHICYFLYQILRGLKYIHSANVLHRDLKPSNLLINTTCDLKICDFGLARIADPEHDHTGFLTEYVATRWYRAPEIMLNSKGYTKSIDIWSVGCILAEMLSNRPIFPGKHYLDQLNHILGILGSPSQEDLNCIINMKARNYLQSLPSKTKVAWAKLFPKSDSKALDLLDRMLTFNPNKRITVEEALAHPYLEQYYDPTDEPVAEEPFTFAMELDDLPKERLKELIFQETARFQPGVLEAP
# Assay: Broad selectivity panel, 32P incorporation
# Type: biochemical
# Settings: 0.1 μM compound, 40 μM ATP; read-out: Percent inhibition MAPK1
# Procedure: as §1
row,SMILES,inhibition at 0.1 µM
1,CC(=O)N1CCC(Nc2nccc(-c3c(-c4ccc(F)cc4)nc4occn34)n2)CC1 [CCLXXVIII],25%
2,CN1[C@@H]2CC[C@H]1C[C@@H](Nc1nccc(-c3c(-c4ccc(F)cc4)nc4occn34)n1)C2 [CCLXXXI],25%

# Same assay, conditions: 1 μM compound, 40 μM ATP; read-out: Percent inhibition MAPK1
row,SMILES,inhibition at 1 µM
1,CC(=O)N1CCC(Nc2nccc(-c3c(-c4ccc(F)cc4)nc4occn34)n2)CC1 [CCLXXVIII],63%
2,CN1[C@@H]2CC[C@H]1C[C@@H](Nc1nccc(-c3c(-c4ccc(F)cc4)nc4occn34)n1)C2 [CCLXXXI],49%

# Molecular target: T6, PKB α (Homo sapiens, UniProt P31749)
# T6 construct: purchased Upstate (Charlottesville, Va.)
# T6 sequence (P31749 whole entry, species assumed): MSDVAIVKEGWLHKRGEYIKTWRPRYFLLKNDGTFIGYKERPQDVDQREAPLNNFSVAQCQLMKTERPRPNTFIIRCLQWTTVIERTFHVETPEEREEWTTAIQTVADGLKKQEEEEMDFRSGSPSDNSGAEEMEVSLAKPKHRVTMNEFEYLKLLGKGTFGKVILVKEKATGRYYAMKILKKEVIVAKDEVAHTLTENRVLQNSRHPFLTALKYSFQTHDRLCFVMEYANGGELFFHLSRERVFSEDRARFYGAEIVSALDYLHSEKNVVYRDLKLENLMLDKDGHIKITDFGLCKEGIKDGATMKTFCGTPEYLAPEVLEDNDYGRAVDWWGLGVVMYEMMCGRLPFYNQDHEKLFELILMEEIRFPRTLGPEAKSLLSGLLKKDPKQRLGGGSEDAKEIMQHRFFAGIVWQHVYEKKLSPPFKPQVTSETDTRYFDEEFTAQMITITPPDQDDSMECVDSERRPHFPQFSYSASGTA
# Assay: Broad selectivity panel, 32P incorporation
# Type: biochemical
# Settings: 0.1 μM compound, 40 μM ATP; read-out: Percent inhibition PKB α
# Procedure: as §1
row,SMILES,inhibition at 0.1 µM
1,CC(=O)N1CCC(Nc2nccc(-c3c(-c4ccc(F)cc4)nc4occn34)n2)CC1 [CCLXXVIII],-6%
2,CN1[C@@H]2CC[C@H]1C[C@@H](Nc1nccc(-c3c(-c4ccc(F)cc4)nc4occn34)n1)C2 [CCLXXXI],-2%

# Same assay, conditions: 1 μM compound, 40 μM ATP; read-out: Percent inhibition PKB α
row,SMILES,inhibition at 1 µM
1,CC(=O)N1CCC(Nc2nccc(-c3c(-c4ccc(F)cc4)nc4occn34)n2)CC1 [CCLXXVIII],4%
2,CN1[C@@H]2CC[C@H]1C[C@@H](Nc1nccc(-c3c(-c4ccc(F)cc4)nc4occn34)n1)C2 [CCLXXXI],6%

# Molecular target: T7, PKBβ (Homo sapiens, UniProt P31751)
# T7 construct: purchased Upstate (Charlottesville, Va.)
# T7 sequence (P31751 whole entry, species assumed): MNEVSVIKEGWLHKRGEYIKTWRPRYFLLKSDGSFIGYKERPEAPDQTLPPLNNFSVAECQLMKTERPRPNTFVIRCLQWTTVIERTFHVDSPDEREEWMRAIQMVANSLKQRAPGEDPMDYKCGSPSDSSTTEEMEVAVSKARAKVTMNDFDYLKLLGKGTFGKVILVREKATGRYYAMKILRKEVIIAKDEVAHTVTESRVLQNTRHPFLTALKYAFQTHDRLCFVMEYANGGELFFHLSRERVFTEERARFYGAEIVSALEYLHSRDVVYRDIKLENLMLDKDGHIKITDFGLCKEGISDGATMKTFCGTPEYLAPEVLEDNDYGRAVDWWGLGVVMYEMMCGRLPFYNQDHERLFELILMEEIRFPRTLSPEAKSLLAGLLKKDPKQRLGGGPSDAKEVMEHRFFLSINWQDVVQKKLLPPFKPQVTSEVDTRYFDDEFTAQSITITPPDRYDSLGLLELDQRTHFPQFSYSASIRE
# Assay: Broad selectivity panel, 32P incorporation
# Type: biochemical
# Settings: 0.1 μM compound, 40 μM ATP; read-out: Percent inhibition PKBβ
# Procedure: as §1
row,SMILES,inhibition at 0.1 µM
1,CC(=O)N1CCC(Nc2nccc(-c3c(-c4ccc(F)cc4)nc4occn34)n2)CC1 [CCLXXVIII],-3%
2,CN1[C@@H]2CC[C@H]1C[C@@H](Nc1nccc(-c3c(-c4ccc(F)cc4)nc4occn34)n1)C2 [CCLXXXI],-12%

# Same assay, conditions: 1 μM compound, 40 μM ATP; read-out: Percent inhibition PKBβ
row,SMILES,inhibition at 1 µM
1,CC(=O)N1CCC(Nc2nccc(-c3c(-c4ccc(F)cc4)nc4occn34)n2)CC1 [CCLXXVIII],41%
2,CN1[C@@H]2CC[C@H]1C[C@@H](Nc1nccc(-c3c(-c4ccc(F)cc4)nc4occn34)n1)C2 [CCLXXXI],13%

# Test system: ROCK-II
# Assay: Broad selectivity panel, 32P incorporation
# Type: biochemical
# Settings: 0.1 μM compound, 40 μM ATP
# Procedure: as §1
row,SMILES,Percent inhibition ROCK-II
1,CC(=O)N1CCC(Nc2nccc(-c3c(-c4ccc(F)cc4)nc4occn34)n2)CC1 [CCLXXVIII],−6
2,CN1[C@@H]2CC[C@H]1C[C@@H](Nc1nccc(-c3c(-c4ccc(F)cc4)nc4occn34)n1)C2 [CCLXXXI],10

# Same assay, conditions: 1 μM compound, 40 μM ATP
row,SMILES,Percent inhibition ROCK-II
1,CC(=O)N1CCC(Nc2nccc(-c3c(-c4ccc(F)cc4)nc4occn34)n2)CC1 [CCLXXVIII],6
2,CN1[C@@H]2CC[C@H]1C[C@@H](Nc1nccc(-c3c(-c4ccc(F)cc4)nc4occn34)n1)C2 [CCLXXXI],9

# Molecular target: T8, ZAP-70 (Homo sapiens, UniProt P43403)
# T8 construct: purchased Upstate (Charlottesville, Va.)
# T8 sequence (P43403 1-619): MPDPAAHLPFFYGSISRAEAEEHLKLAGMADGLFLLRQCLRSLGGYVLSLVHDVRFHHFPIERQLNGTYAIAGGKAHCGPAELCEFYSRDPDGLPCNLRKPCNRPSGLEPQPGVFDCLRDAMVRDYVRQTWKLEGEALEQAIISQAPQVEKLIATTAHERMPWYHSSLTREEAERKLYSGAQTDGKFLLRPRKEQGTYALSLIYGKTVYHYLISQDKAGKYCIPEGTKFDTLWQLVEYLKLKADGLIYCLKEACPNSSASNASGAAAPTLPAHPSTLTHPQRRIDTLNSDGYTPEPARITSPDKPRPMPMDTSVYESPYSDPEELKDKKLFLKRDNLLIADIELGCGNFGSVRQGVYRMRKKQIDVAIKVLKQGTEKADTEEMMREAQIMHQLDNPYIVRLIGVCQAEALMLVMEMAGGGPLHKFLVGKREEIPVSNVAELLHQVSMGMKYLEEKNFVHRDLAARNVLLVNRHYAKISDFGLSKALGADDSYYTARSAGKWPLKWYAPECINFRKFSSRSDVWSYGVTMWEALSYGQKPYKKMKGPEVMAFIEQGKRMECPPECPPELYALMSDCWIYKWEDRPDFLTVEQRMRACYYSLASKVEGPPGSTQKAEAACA
# Assay: Broad selectivity panel, 32P incorporation
# Type: biochemical
# Settings: 0.1 μM compound, 40 μM ATP; read-out: Percent inhibition ZAP-70
# Procedure: as §1
row,SMILES,inhibition at 0.1 µM
1,CC(=O)N1CCC(Nc2nccc(-c3c(-c4ccc(F)cc4)nc4occn34)n2)CC1 [CCLXXVIII],-53%
2,CN1[C@@H]2CC[C@H]1C[C@@H](Nc1nccc(-c3c(-c4ccc(F)cc4)nc4occn34)n1)C2 [CCLXXXI],12%

# Same assay, conditions: 1 μM compound, 40 μM ATP; read-out: Percent inhibition ZAP-70
row,SMILES,inhibition at 1 µM
1,CC(=O)N1CCC(Nc2nccc(-c3c(-c4ccc(F)cc4)nc4occn34)n2)CC1 [CCLXXVIII],18%
2,CN1[C@@H]2CC[C@H]1C[C@@H](Nc1nccc(-c3c(-c4ccc(F)cc4)nc4occn34)n1)C2 [CCLXXXI],30%

# Molecular target: T9, c-RAF (Homo sapiens, UniProt P04049)
# T9 construct: purchased Upstate (Charlottesville, Va.)
# T9 sequence (P04049 whole entry, species assumed): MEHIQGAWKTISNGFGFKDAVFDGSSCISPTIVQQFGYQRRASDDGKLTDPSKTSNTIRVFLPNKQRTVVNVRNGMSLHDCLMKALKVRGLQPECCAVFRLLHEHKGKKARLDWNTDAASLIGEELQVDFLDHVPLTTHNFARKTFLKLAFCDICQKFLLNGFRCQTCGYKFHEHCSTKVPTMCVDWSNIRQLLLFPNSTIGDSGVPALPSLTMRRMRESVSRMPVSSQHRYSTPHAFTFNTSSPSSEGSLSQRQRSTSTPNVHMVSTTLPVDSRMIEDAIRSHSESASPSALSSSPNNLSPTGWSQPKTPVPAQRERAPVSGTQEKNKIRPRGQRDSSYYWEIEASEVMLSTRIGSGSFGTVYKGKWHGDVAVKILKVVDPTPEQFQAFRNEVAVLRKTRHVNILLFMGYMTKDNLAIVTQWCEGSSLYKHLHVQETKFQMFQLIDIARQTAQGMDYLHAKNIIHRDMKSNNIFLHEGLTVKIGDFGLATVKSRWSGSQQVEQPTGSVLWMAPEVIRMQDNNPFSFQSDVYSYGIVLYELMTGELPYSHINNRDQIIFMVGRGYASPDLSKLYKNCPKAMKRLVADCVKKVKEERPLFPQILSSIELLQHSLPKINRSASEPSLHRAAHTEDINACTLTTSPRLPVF
# Assay: Broad selectivity panel, 32P incorporation
# Type: biochemical
# Settings: 0.1 μM compound, 40 μM ATP; read-out: Percent inhibition c-RAF
# Procedure: as §1
row,SMILES,inhibition at 0.1 µM
1,CC(=O)N1CCC(Nc2nccc(-c3c(-c4ccc(F)cc4)nc4occn34)n2)CC1 [CCLXXVIII],26%
2,CN1[C@@H]2CC[C@H]1C[C@@H](Nc1nccc(-c3c(-c4ccc(F)cc4)nc4occn34)n1)C2 [CCLXXXI],-4%

# Same assay, conditions: 1 μM compound, 40 μM ATP; read-out: Percent inhibition c-RAF
row,SMILES,inhibition at 1 µM
1,CC(=O)N1CCC(Nc2nccc(-c3c(-c4ccc(F)cc4)nc4occn34)n2)CC1 [CCLXXVIII],66%
2,CN1[C@@H]2CC[C@H]1C[C@@H](Nc1nccc(-c3c(-c4ccc(F)cc4)nc4occn34)n1)C2 [CCLXXXI],8%

# Test system: p70S6K
# Assay: Broad selectivity panel, 32P incorporation
# Type: biochemical
# Settings: 0.1 μM compound, 40 μM ATP
# Procedure: as §1
row,SMILES,Percent inhibition p70S6K
1,CC(=O)N1CCC(Nc2nccc(-c3c(-c4ccc(F)cc4)nc4occn34)n2)CC1 [CCLXXVIII],−11
2,CN1[C@@H]2CC[C@H]1C[C@@H](Nc1nccc(-c3c(-c4ccc(F)cc4)nc4occn34)n1)C2 [CCLXXXI],−16

# Same assay, conditions: 1 μM compound, 40 μM ATP
row,SMILES,Percent inhibition p70S6K
1,CC(=O)N1CCC(Nc2nccc(-c3c(-c4ccc(F)cc4)nc4occn34)n2)CC1 [CCLXXVIII],4
2,CN1[C@@H]2CC[C@H]1C[C@@H](Nc1nccc(-c3c(-c4ccc(F)cc4)nc4occn34)n1)C2 [CCLXXXI],−10
